We go through 7 molecules from paper PMC9551036, “A selective and orally bioavailable VHL-recruiting PROTAC achieves SMARCA2 degradation in vivo” (Nature Communications, 2022).

≈ marks a conversion by molar mass, not a printed value. Where “and” joins values, the source holds several entries; their conditions need not be identical. Equal values may be shown once. Read-outs that look alike come from different tables or passages of the source. A value given as a limit tells only on which side of the number the result lay.

Series [1] has as its target T1, SMARCA2^BD (Homo sapiens, UniProt P51531).
T1 construct: P51531-2, residues 1373-1493 with additional N-terminal SM residues; GST (TEV site) (N, cleaved yes); made in house; host or cells: Escherichia coli BL21(DE3)
Description: SPR binding to immobilised SMARCA2 bromodomain. To be noted: benzoxazinone lead series, Fig. 1b; read-out: SMARCA2^BD SPR KD. As for the experimental part:
SMARCA4^BD was provided by the Structural Genomics Consortium (SGC), Toronto[32] and SMARCA2^BD and PRM1^BD5 were synthesised by GeneArt then subcloned into pDEST15 vectors (Invitrogen). The VCB complex was expressed and purified as described previously, with the modification that 0.3 mM IPTG was used for induction of expression. […] Both were stored in 20 mM 4-(2-hydroxyethyl)−1-piperazineethanesulfonic acid (HEPES), 150 mM sodium chloride and 1 mM tris(2-carboxyethyl)phosphine (TCEP) pH 7.5. SMARCA2^BD, SMARCA4^BD and PBRM1^BD5 were expressed in Escherichia coli BL21(DE3) as N-terminal GST fusion proteins with a TEV protease cleavage site. Expression and purification of these proteins has been described previously[32],[33]. Starter cultures were grown overnight at 37 °C in 10 mL of Luria-Bertani (LB) medium with ampicillin (100 μg/mL). The starter cultures were diluted (1:100) in Terrific Broth (TB) medium with ampicillin (100 μg/mL) and grown in a shaking incubator at 37 °C to an optical density (OD600) ~1 before the temperature was lowered for induction (to 23 °C for SMARCA2^BD or 18 °C for SMARCA4^BD and PRRM1^BD5). […] Cells were harvested by centrifugation and stored at −80 °C prior to purification. […] The Lysis buffers were as follows: for SMARCA2^BD: 50 mM HEPES, 500 mM sodium chloride, 5% glycerol, 5 mM dithiothreitol (DTT); for SMARCA4^BD: 25 mM HEPES, 0.3 M sodium chloride, 5% glycerol, 10 mM DTT, pH 7.5; for PBRM1^BD5: 25 mM HEPES, 300 mM sodium chloride, 5% glycerol, 10 mM DTT, pH 7.8; in each case supplemented with complete protease inhibitors (Roche). Affinity purification was performed using Glutathione Sepharose 4B (GE Healthcare) in batch mode or on-column. […] For SMARCA2^BD, prior to TEV protease cleavage the eluted GST-tagged BD was first dialysed into desalting buffer (20 mM HEPES, 250 mM sodium chloride, pH 7.0 + 0.5% glycerol). Where TEV cleavage was performed in solution, a second affinity (GST-trap) column purification step was carried out to remove the GST-tag and uncleaved GST-tagged protein. Proteins were further purified by SEC (HiLoad Superdex-75, 16/600) (GE Healthcare) and stored in Storage buffer (for SMARCA2^BD: 20 mM HEPES, 150 mM sodium chloride, pH 7.5; for SMARCA4^BD: 10 mM HEPES, 0.5 M NaCl, 5% glycerol, pH 7.5; for PBRM1^BD5: 20 mM HEPES, 300 mM NaCl, 5 mM DTT, pH 7.8). For AlphaScreen assays, eluted GST-tagged BDs were purified directly by SEC in the respective storage buffers without TEV cleavage. All chromatography purification steps were performed either at room temperature or 4 °C using an ÄKTA FPLC purification system (GE Healthcare) or a plastic Econo-Pac column (Bio-Rad).
SPR data were acquired on Biacore 8K or T200 instruments (Cytiva). Target proteins were immobilised at 25 °C on CM5 chips by amine coupling (EDC/NHS, Cytiva) in HBS-P+ running buffer (pH 7.4), containing 2 mM TCEP. […] The reference surface was subsequently deactivated using 1 M ethanolamine. […] Biotinylated VCB was prepared as previously described[27]: in brief, the complex was mixed 1:1 with EZ-Link NHS–PEG4–biotin (Thermo Scientific) and incubated at room temperature for 1 h. Unreacted NHS-biotin was removed using a PD-10 desalting column (Cytiva) into 20 mM HEPES, pH 7.5, 150 mM sodium chloride and 1 mM DTT. The reference surface was generated by deactivating the EDC/NHS-treated surface with 1 M ethanolamine. All interaction experiments were done at 6 °C in running buffer (20 mM TRIS, pH 8.3, 150 mM potassium chloride, 2 mM magnesium chloride, 2 mM TCEP, 0.005% TWEEN 20, 1% dimethyl sulfoxide). For ternary complex measurements, a sensor chip surface with VCB immobilised was used (preparation as described above). Experiments were run in dual-inject mode with 10 µM SMARCA present during the injection and dissociation phase. Sensorgrams from reference surfaces and blank injections were subtracted from the raw data prior to data analysis using Biacore Insight software.
A general note: SPR reads the build-up and loss of mass on a sensor chip optically.

Series [2] concerns the target T2, VCB: PROTAC: SMARCA2^BD ternary complex (Homo sapiens, UniProt P51531).
T2 construct: P51531-2, residues 1373-1493 with additional N-terminal SM residues; GST (TEV site) (N); His6 (TEV site) (N, cleaved yes); made in house; host or cells: SMARCA2^BD: Escherichia coli BL21(DE3)
The series is described as follows: TR-FRET ternary complex affinity and cooperativity, SMARCA2. The class given is binding. In general terms: TR-FRET usually uses a lanthanide donor and a delayed reading to cut background.

Series [3] has as its system VCB: PROTAC: SMARCA2^BD ternary complex. The series is described as above. The settings on record: ratio TR-FRET EC50 / TR-FRET EC50 +VCB measured in the same run, SMARCA2BD. The class given is binding, human.
A short description of series [4]: Solubility testing. In kind it is physicochemical. The settings on record: for solubility at 24 h: buffer, kinetic from dmso stock. How it is done:
Dilution into a 1:1 mixture of acetonitrile and water was used as reference. After 24 h, the incubations were filtrated, and the filtrate was analyzed by LC-UV.

The nature of series [5]: Microsomal stability. The class given is in vitro ADME. The settings on record: for Mic. Stab. Human / Mic. Stab. Human QH: human liver microsomes; for Mic. Stab. Mouse / Mic. Stab. Mouse QH: mouse liver microsomes; for Mic. Stab. Rat / Mic. Stab. Rat QH: rat liver microsomes. How it is done: […] Reactions were terminated by addition of acetonitrile and precipitates separated by centrifugation. Compound concentrations in supernatants were measured by HPLC-MS/MS and clearance was calculated from compound half-lives using the well-stirred liver model.
(In general: Microsomes from liver hold many membrane-bound enzymes, among them those of drug oxidation.)

Series [6] in a line: Bidirectional permeability measurement in Caco-2 cells. To be noted: human. The class given is in vitro ADME. How it is done:
Bidirectional permeability of test compounds across a Caco-2 cell monolayer was measured as described[43] with a modification of preincubation time[44]: Briefly, Caco-2 cells were seeded onto Transwell inserts (#3379, Corning, Wiesbaden, Germany) at a density of 160000 cells/cm^2 and cultured in DMEM (high glucose) containing 10% fetal bovine serum for 14–21 days. Cells were incubated with culture media containing 1 µM test compound for 24 h. […] Samples were taken at different time points for up to 2 h. Test compound in the samples was quantified with LC-MS/MS. To elucidate the role of drug transporter P-gp in the transcellular transport, permeability measurement was performed in the absence and presence of the selective P-gp inhibitor zosuquidar (5 µM final concentration). Apparent permeability coefficients (Papp,AB, Papp,BA) were calculated as follows:1 Papp,AB=Q_AB/C0×s×t 2 Papp,BA=Q_BA/C0×s×t where Q is the amount of compound recovered in the receiver compartment after the incubation time t, C0 the initial compound concentration given to the donor compartment, and s the surface area of the Transwell inserts. Efflux ratio is calculated as the quotient of Papp,BA (mean of duplicate) to Papp,AB (mean of duplicate). […] In addition, Transepithelial electrical resistance (TEER) values were measured for each plate before the permeability assay. All three parameters (efflux of the reference substrates, Papp values of the low permeable compound, and TEER values) were used to ensure the quality of the assays.

In series [7] the target is VCB: PROTAC: SMARCA2^BD ternary complex (Homo sapiens, UniProt P40337+P51531). The series is described as follows: TR-FRET ternary complex affinity and cooperativity, SMARCA2. The class given is binding. Also noted: P51531-2, residues 1373-1493 with additional N-terminal SM residues; GST (TEV site) (N); His6 (TEV site) (N, cleaved yes); made in house; host or cells: SMARCA2^BD: Escherichia coli BL21(DE3).
Chain of VCB: PROTAC: SMARCA2^BD ternary complex (Homo sapiens, UniProt P40337+P51531) (P51531 with tags, fused parts or gaps isoform P51531-2): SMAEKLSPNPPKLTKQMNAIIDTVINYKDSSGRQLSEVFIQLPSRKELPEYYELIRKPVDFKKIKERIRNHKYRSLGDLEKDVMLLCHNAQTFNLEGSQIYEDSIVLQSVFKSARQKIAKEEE
Chain of VCB: PROTAC: SMARCA2^BD ternary complex (Homo sapiens, UniProt P40337+P51531) (P40337 54-213): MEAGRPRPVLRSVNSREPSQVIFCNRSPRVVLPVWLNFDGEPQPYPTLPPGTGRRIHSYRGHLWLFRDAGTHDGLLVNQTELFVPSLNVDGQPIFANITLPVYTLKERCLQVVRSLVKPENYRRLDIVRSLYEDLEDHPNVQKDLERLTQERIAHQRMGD
Chain of VCB: PROTAC: SMARCA2^BD ternary complex (Homo sapiens, UniProt P40337+P51531) (Q15369 17-112 partner): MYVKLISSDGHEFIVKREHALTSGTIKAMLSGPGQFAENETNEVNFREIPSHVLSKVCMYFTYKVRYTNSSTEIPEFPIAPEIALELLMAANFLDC
Chain of VCB: PROTAC: SMARCA2^BD ternary complex (Homo sapiens, UniProt P40337+P51531) (Q15370 1-104 partner): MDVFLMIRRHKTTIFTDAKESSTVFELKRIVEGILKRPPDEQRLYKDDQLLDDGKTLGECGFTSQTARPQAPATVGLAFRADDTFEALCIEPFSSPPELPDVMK

T1 sequence (P51531 1373-1493 isoform P51531-2): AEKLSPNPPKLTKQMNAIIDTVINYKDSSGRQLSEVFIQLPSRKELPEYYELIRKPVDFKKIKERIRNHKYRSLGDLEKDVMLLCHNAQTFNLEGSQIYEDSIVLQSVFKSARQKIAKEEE
T2 sequence (P51531 with tags, fused parts or gaps isoform P51531-2): as the sequence (P51531 with tags, fused parts or gaps isoform P51531-2) above

Consider `CN1CCN(c2nc(=O)c3c(Br)cccc3o2)CC1` [R = Br], for which the Kd – broadly, the concentration at which binding is half-saturated – in series [1] was found to be 9 µM.

As for `CN1CCN(c2nc(=O)c3c(Cl)cccc3o2)CC1` [R = Cl], the Kd in series [1] was 25 µM.

`CN1CCN(c2nc(=O)c3c(F)cccc3o2)CC1` [R = F]: the Kd in series [1] is greater than 25 µM.

As for `CN1CCN(c2nc(=O)c3ccccc3o2)CC1` [R = H], in series [1], the Kd is greater than 25 µM.

As to `CN1CCN(c2nc(=O)c3c(I)cccc3o2)CC1` [R = I], the Kd in series [1] turned out to be 18 µM.

Take `O=c1nc2n(C3CCCC3)c3cc(C4CCNCC4)ccc3n2c2cccc(Br)c12` [compound 4]: in series [2] (SMARCA2 BD EC50, binary, PROTAC alone, individual replicates), the half-maximal effective concentration (EC50) (usually the concentration at which the effect is half-maximal) was determined as 0.0884 µM. For the same molecule, the EC50 in series [2] (TR-FRET SMARCA2BD EC50, TR-FRET competition for SMARCA2BD, without VCB, mean ± SD) stood at 0.088 µM. For the same molecule, the “cooperativity α (SMARCA2BD)” value in series [3] was determined as 1.2. Moreover, the solubility (in general, the concentration that dissolves in the medium under given conditions) at 24 h in series [4] (pH 4.5, aqueous buffer, pH 4.5, read-out: Solubility pH 4.5) was 0.085 mg/mL (≈ 183 µM). Also, the solubility at 24 h in series [4] (pH 6.8, aqueous buffer, pH 6.8, read-out: Solubility pH 6.8) turned out to be 0.079 mg/mL (≈ 170 µM). Also, in series [5], the “Mic. Stab. Human” value was less than 24 % QH, the “Mic. Stab. Human QH” value is listed as less than 24.400%, the “Mic. Stab. Mouse” value is less than 24 % QH and the “Mic. Stab. Mouse QH” value came out at 25.670%. Further, in series [5], the “Mic. Stab. Rat” value was less than 23 % QH and the “Mic. Stab. Rat QH” value is reported as less than 23.080%. Moreover, the Papp A→B at 1 µM in series [6] (Caco-2, pH 7.4, Caco-2, a to b, read-out: Caco-2 Pab) came to 25.5 nm/s. Besides, the Papp B→A at 1 µM in series [6] (Caco-2, pH 7.4, Caco-2, b to a, read-out: Caco-2 Pba) was determined as 326 nm/s. For the same molecule, the efflux ratio at 2 h, 1 µM in series [6] (Caco-2, pH 7.4, Caco-2, read-out: Caco-2 Efflux ratio) was determined as 12.8. The EC50 in series [7] (TR-FRET Ternary SMARCA2BD EC50 (PROTAC + VCB), TR-FRET competition for SMARCA2BD, + VCB, mean ± SD) worked out at 0.074 µM. In addition, the EC50 in series [7] (Ternary SMARCA2 BD EC50 (PROTAC + VCB), PROTAC + VCB, individual replicates) came to 0.0735 µM.

`Cc1ncsc1-c1ccc([C@@H](COCCN2CCC(c3ccc4c(c3)n(C3CCCC3)c3nc(=O)c5c(Br)cccc5n43)CC2)NC(=O)[C@@H]2C[C@@H](O)CN2C(=O)[C@@H](NC(=O)C2(F)CC2)C(C)(C)C)cc1` [compound 24]: in series [4] (pH 4.5), the “Solubility pH 4.5” value is reported as <1.000 <1.000 ug/mL. For the same molecule, in series [4] (pH 6.8), the “Solubility pH 6.8” value was <1.000 <1.000 ug/mL. Besides, in series [5], the “Mic. Stab. Human” value is given as 59 ± 0.4 % QH; the “Mic. Stab. Human QH” value is 59.130% and 58.510%; the “Mic. Stab. Mouse” value was 40 ± 2 % QH; the “Mic. Stab. Mouse QH” value was 38.210% and 41.130%. Besides, in series [5], the “Mic. Stab. Rat” value was 31 % QH; the “Mic. Stab. Rat QH” value was < 23.080% and 30.780%.
